Measured values published in the supplement of paper PMC10307832.

Key:
Test in all cases: relative viability (nuclei count vs DMSO), 5 days (fraction); higher = more cells survive
[1] = compound: O=C(NC1CCNCC1)c1n[nH]cc1NC(=O)c1c(Cl)cccc1Cl [AT-7519]
In short: (§1)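 Lung cancer cell lines were seeded into 1536-well plates, kept overnight at 37 °C and pinned with five library-drug doses (not always all listed) spaced by √10. After 5 days, nuclei were Hoechst-stained, imaged at 4× and counted with MetaXpress. Viability is treated-well nuclei over vehicle-well nuclei, taken as a median across plates. Plates needed control CV below 25% and at least one doubling.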

[2] = compound: C1=CC2=C(C=C(C(=C2N=C1)O)N=NC3=CC4=C(C=C3)C=C(C=C4)S(=O)(=O)O)S(=O)(=O)O
In short: as §1

[3] = compound: C1=CC2=C(C=C(C(=C2N=C1)O)N=NC3=CC4=C(C=C3)C=C(C=C4)S(=O)(=O)O)S(=O)(=O)O + Cc1nc(NC(=O)N2CCC[C@H]2C(N)=O)sc1-c1ccnc(C(C)(C)C(F)(F)F)c1 [Alpelisib] (partner 2 µM)
In short: (§2)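 Lung cancer cell lines were seeded in 1536-well plates and dosed by pin tool the next day, with either a single drug or a fixed anchor-drug dose combined with five library-drug doses (not always all listed) spaced in √10 steps. Five days later, one step fixed the cells and stained their nuclei (final 0.05% Triton X-100, 1% formaldehyde, 1 ug/ml Hoechst), and nuclei were counted on 4× images. Relative viability is the nuclei count in treated wells divided by the count in vehicle wells, and each value is the median of duplicate plates.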

[4] = compound: C1=CC2=C(C=C(C(=C2N=C1)O)N=NC3=CC4=C(C=C3)C=C(C=C4)S(=O)(=O)O)S(=O)(=O)O + CS(=O)(=O)N1CCN(Cc2cc3nc(-c4cccc5[nH]ncc45)nc(N4CCOCC4)c3s2)CC1 [Pictilisib] (partner 1 µM)
In short: as §2

UMC-11
relative viability ([1]; 0.01 µM): 0.951
relative viability ([1]; 0.03162 µM): 0.934
relative viability ([1]; 0.3162 µM): 0.765
relative viability ([1]; 1 µM): 0.499
relative viability ([2]; 0.08 µM): 1.11
relative viability ([2]; 0.253 µM): 0.942
relative viability ([2]; 0.8 µM): 0.925
relative viability ([2]; 2.53 µM): 1.02
relative viability ([2]; 8 µM): 0.92
relative viability ([3]; first compound 0.08 µM): 1.12
relative viability ([3]; first compound 0.253 µM): 0.954
relative viability ([3]; first compound 0.8 µM): 0.918
relative viability ([3]; first compound 2.53 µM): 0.88
relative viability ([3]; first compound 8 µM): 0.824
relative viability ([4]; first compound 0.08 µM): 1.05
relative viability ([4]; first compound 0.253 µM): 0.762
relative viability ([4]; first compound 0.8 µM): 0.761
relative viability ([4]; first compound 2.53 µM): 0.908
relative viability ([4]; first compound 8 µM): 0.833
